14 molecules from ChEMBL document CHEMBL5550129, “Optimization of benzenesulfonyl derivatives as anti-Trypanosomatidae agents: Structural design, synthesis, and pharmacological assessment against Trypanosoma cruzi and Leishmania infantum” (Bioorg Med Chem, 2024) can be followed below.

Each structure is given as a SMILES string. Bounds are passed on as bounds.

In the first data set the test system is Trypanosoma cruzi. As to the kind of experiment: Antitrypanosomal activity against Trypanosoma cruzi Tulahuen expressing Escherichia coli beta-galactosidase infected in L929 cells pretreated with parasite for 50 hrs followed by compound addition and measured after 96 hrs. It counts as functional, organism-based.
Conditions: not given
As for `CN(C)CCOc1ccc(N2CCN(S(=O)(=O)c3ccccc3)CC2)cc1`, the IC50 amounted to 28 µM.
Regarding `CN(C)CCOc1ccc(N2CCN(C(=O)c3ccc(Cl)cc3)CC2)cc1`, the IC50 stood at 4.3 µM.
The same measure, in the same setting: to `O=S(=O)(c1ccc(F)cc1)N1CCN(c2ccccc2)CC1` belongs more than 200 µM; to `Nc1ccc(C(=O)N2CCN(S(=O)(=O)c3ccc(Cl)cc3)CC2)cc1`, more than 200 µM; to `N#Cc1ccc(C(=O)N2CCN(S(=O)(=O)c3ccc(Cl)cc3)CC2)cc1`, more than 200 µM.
Same read-out and setting: to `CN(C)CCOc1ccc(N2CCN(S(=O)(=O)c3ccc([N+](=O)[O-])cc3)CC2)cc1` belongs 1.7 µM.
In the case of `O=C(c1ccc([N+](=O)[O-])cc1)N1CCN(S(=O)(=O)c2ccc(Cl)cc2)CC1`, the IC50 was more than 200 µM.
Consider `CC(=O)Nc1ccc(S(=O)(=O)N2CCN(c3ccc(OCCN(C)C)cc3)CC2)cc1`, for which the IC50 was 187 µM.
On to `CN(C)CCNc1ccc(C(=O)N2CCN(S(=O)(=O)c3ccc(Cl)cc3)CC2)cn1`, for which the IC50 was found to be 65.9 µM.
Same read-out and setting: to `N#CCOc1ccc(N2CCN(S(=O)(=O)c3ccc(Cl)cc3)CC2)cc1` belongs 7.2 µM; to `COc1ccc(S(=O)(=O)N2CCN(c3ccc(OCCN(C)C)cc3)CC2)cc1`, 7.1 µM.
In the case of `N#CCOc1ccc(C(=O)N2CCN(S(=O)(=O)c3ccc(Cl)cc3)CC2)cc1`, the 50% inhibitory concentration (IC50) turned out to be 108 µM.
Still for that read-out and setting: in the case of `CN(C)CCOc1ccc(N2CCN(S(=O)(=O)c3ccc(F)cc3)CC2)cc1` it was 6.4 µM.

Tested on in a further data set: not listed separately
As to the kind of experiment: Cytotoxicity against mouse L929 cells incubated for 96 hrs by Alamar blue assay. It counts as toxicity, cell-based.
Conditions: not given
With `CN(C)CCOc1ccc(N2CCN(S(=O)(=O)c3ccccc3)CC2)cc1`, the midpoint of cytotoxicity, the CC50 at 96 h, lay at 91.2 µM.
`CN(C)CCOc1ccc(N2CCN(C(=O)c3ccc(Cl)cc3)CC2)cc1` gave a CC50 at 96 h of 339 µM.
The molecule `CN(C)CCOc1ccc(N2CCN(S(=O)(=O)c3ccc([N+](=O)[O-])cc3)CC2)cc1` came in with a CC50 at 96 h of 302 µM.
On the same count and under the same terms, in the case of `CN(C)CCNc1ccc(C(=O)N2CCN(S(=O)(=O)c3ccc(Cl)cc3)CC2)cn1` it was 395 µM; in that of `COc1ccc(S(=O)(=O)N2CCN(c3ccc(OCCN(C)C)cc3)CC2)cc1`, 354 µM.
As for `CN(C)CCOc1ccc(N2CCN(S(=O)(=O)c3ccc(F)cc3)CC2)cc1`, the CC50 at 96 h amounted to 374 µM.

Tested on in another data set: not listed separately
The experiment in a line: Selectivity index, ratio of CC50 for mouse L929 cells to IC50 for Trypanosoma cruzi Tulahuen expressing Escherichia coli beta-galactosidase infected in L929 cells. Type of data set: toxicity. To be noted: read-out: Ratio CC50/IC50.
Regarding `CN(C)CCOc1ccc(N2CCN(S(=O)(=O)c3ccccc3)CC2)cc1`, the selectivity ratio came to 3.
Same read-out and setting: in the case of `CN(C)CCOc1ccc(N2CCN(C(=O)c3ccc(Cl)cc3)CC2)cc1` it was 79; in that of `CN(C)CCOc1ccc(N2CCN(S(=O)(=O)c3ccc([N+](=O)[O-])cc3)CC2)cc1`, 178; in that of `CN(C)CCNc1ccc(C(=O)N2CCN(S(=O)(=O)c3ccc(Cl)cc3)CC2)cn1`, 6.
Turning to `N#CCOc1ccc(N2CCN(S(=O)(=O)c3ccc(Cl)cc3)CC2)cc1`, the selectivity ratio is 71.
Same read-out and setting: to `COc1ccc(S(=O)(=O)N2CCN(c3ccc(OCCN(C)C)cc3)CC2)cc1` belongs 50; to `CN(C)CCOc1ccc(N2CCN(S(=O)(=O)c3ccc(F)cc3)CC2)cc1`, 58.

The next data set deals with Leishmania infantum. The experiment in a line: Antileishmanial activity against Leishmania infantum MHOM/BR/1974/PP75 expressing red fluorescence protein infected in THP-1 cells pre-infected for 4 hrs followed by compound addition and measured after 72 hrs by microplate reader assay. Type of data set: functional, organism-based. To be noted: MHOM/BR/1974/PP75, THP-1.
With `CN(C)CCOc1ccc(N2CCN(S(=O)(=O)c3ccccc3)CC2)cc1`, the IC50 was more than 100 µM.
Still for that read-out and setting: in the case of `CN(C)CCOc1ccc(N2CCN(C(=O)c3ccc(Cl)cc3)CC2)cc1` it was 37.5 µM.
The same measure, in the same setting: in the case of `O=S(=O)(c1ccc(F)cc1)N1CCN(c2ccccc2)CC1` it was more than 100 µM; in that of `Nc1ccc(C(=O)N2CCN(S(=O)(=O)c3ccc(Cl)cc3)CC2)cc1`, more than 100 µM.
Take `N#Cc1ccc(C(=O)N2CCN(S(=O)(=O)c3ccc(Cl)cc3)CC2)cc1`: the IC50 was 36.4 µM.
Same read-out and setting: to `CN(C)CCOc1ccc(N2CCN(S(=O)(=O)c3ccc([N+](=O)[O-])cc3)CC2)cc1` belongs 62.9 µM; to `O=C(c1ccc([N+](=O)[O-])cc1)N1CCN(S(=O)(=O)c2ccc(Cl)cc2)CC1`, 48.8 µM.
Take `CC(=O)Nc1ccc(S(=O)(=O)N2CCN(c3ccc(OCCN(C)C)cc3)CC2)cc1`: the IC50 is more than 100 µM.
Same read-out and setting: to `CN(C)CCNc1ccc(C(=O)N2CCN(S(=O)(=O)c3ccc(Cl)cc3)CC2)cn1` belongs 35.7 µM.
Consider `N#CCOc1ccc(N2CCN(S(=O)(=O)c3ccc(Cl)cc3)CC2)cc1`, for which half-maximal inhibition (IC50) required 23.3 µM.
`COc1ccc(S(=O)(=O)N2CCN(c3ccc(OCCN(C)C)cc3)CC2)cc1` came in with an IC50 of 25.1 µM.
Still for that read-out and setting: in the case of `N#CCOc1ccc(C(=O)N2CCN(S(=O)(=O)c3ccc(Cl)cc3)CC2)cc1` it was 0.8 µM.
Still for that read-out and setting: in the case of `CN(C)CCOc1ccc(N2CCN(S(=O)(=O)c3ccc(F)cc3)CC2)cc1` it was 6.1 µM.

Tested on in another data set: not listed separately
As to the kind of experiment: Cytotoxicity against human THP-1 cells incubated for 72 hrs by Alamar blue assay. Type of data set: toxicity, cell-based.
Conditions: not given
As for `CN(C)CCOc1ccc(N2CCN(S(=O)(=O)c3ccccc3)CC2)cc1`, half-maximal cytotoxicity (CC50 at 72 h) was put at 650 µM.
On to `CN(C)CCOc1ccc(N2CCN(C(=O)c3ccc(Cl)cc3)CC2)cc1`, for which the CC50 at 72 h is more than 1000 µM.
The same measure, in the same setting: in the case of `Nc1ccc(C(=O)N2CCN(S(=O)(=O)c3ccc(Cl)cc3)CC2)cc1` it was more than 1000 µM; in that of `N#Cc1ccc(C(=O)N2CCN(S(=O)(=O)c3ccc(Cl)cc3)CC2)cc1`, more than 1000 µM; in that of `CN(C)CCOc1ccc(N2CCN(S(=O)(=O)c3ccc([N+](=O)[O-])cc3)CC2)cc1`, 343 µM.
Still for that read-out and setting: to `O=C(c1ccc([N+](=O)[O-])cc1)N1CCN(S(=O)(=O)c2ccc(Cl)cc2)CC1` belongs more than 1000 µM; to `CC(=O)Nc1ccc(S(=O)(=O)N2CCN(c3ccc(OCCN(C)C)cc3)CC2)cc1`, more than 1000 µM; to `CN(C)CCNc1ccc(C(=O)N2CCN(S(=O)(=O)c3ccc(Cl)cc3)CC2)cn1`, 388 µM.
With `N#CCOc1ccc(N2CCN(S(=O)(=O)c3ccc(Cl)cc3)CC2)cc1`, half-maximal cytotoxicity (CC50 at 72 h) was put at 46.6 µM.
The same measure, in the same setting: in the case of `COc1ccc(S(=O)(=O)N2CCN(c3ccc(OCCN(C)C)cc3)CC2)cc1` it was 388 µM.
As to `N#CCOc1ccc(C(=O)N2CCN(S(=O)(=O)c3ccc(Cl)cc3)CC2)cc1`, the CC50 at 72 h amounted to 371 µM.
Same read-out and setting: to `CN(C)CCOc1ccc(N2CCN(S(=O)(=O)c3ccc(F)cc3)CC2)cc1` belongs more than 1000 µM.

Tested on in another data set: not listed separately
The experiment in a line: Selectivity index, ratio of CC50 for human THP-1 cells to IC50 for Leishmania infantum MHOM/BR/1974/PP75 expressing red fluorescence protein infected in THP-1 cells. Type of data set: toxicity, cell-based. To be noted: read-out: Ratio CC50/IC50.
Turning to `CN(C)CCOc1ccc(N2CCN(S(=O)(=O)c3ccccc3)CC2)cc1`, the selectivity ratio is less than 7.
Still for that read-out and setting: in the case of `CN(C)CCOc1ccc(N2CCN(C(=O)c3ccc(Cl)cc3)CC2)cc1` it was more than 27; in that of `CN(C)CCOc1ccc(N2CCN(S(=O)(=O)c3ccc([N+](=O)[O-])cc3)CC2)cc1`, 6.
Turning to `O=C(c1ccc([N+](=O)[O-])cc1)N1CCN(S(=O)(=O)c2ccc(Cl)cc2)CC1`, the selectivity ratio was more than 20.
With `CN(C)CCNc1ccc(C(=O)N2CCN(S(=O)(=O)c3ccc(Cl)cc3)CC2)cn1`, the selectivity ratio was found to be 11.
`N#CCOc1ccc(N2CCN(S(=O)(=O)c3ccc(Cl)cc3)CC2)cc1`: the selectivity ratio was 2.
Same read-out and setting: in the case of `COc1ccc(S(=O)(=O)N2CCN(c3ccc(OCCN(C)C)cc3)CC2)cc1` it was 16; in that of `N#CCOc1ccc(C(=O)N2CCN(S(=O)(=O)c3ccc(Cl)cc3)CC2)cc1`, 453; in that of `CN(C)CCOc1ccc(N2CCN(S(=O)(=O)c3ccc(F)cc3)CC2)cc1`, more than 405.

The next data set concerns Trypanosoma cruzi. As to the kind of experiment: Antitrypanosomal activity against Trypanosoma cruzi. Type of data set: functional, organism-based.
Conditions: not given
Regarding `O=S(=O)(c1ccc(Cl)cc1)N1CCNCC1`, inhibition was half-maximal at 3.7 µM (IC50).

Tested on in the next data set: not listed separately
The experiment in a line: Cytotoxicity against mouse L929 cells.
Conditions: not given
Type of data set: toxicity, cell-based.
As for `O=S(=O)(c1ccc(Cl)cc1)N1CCNCC1`, the CC50 is 227 µM.

Tested on in another data set: not listed separately
The experiment in a line: Selectivity index, ratio of CC50 for mouse L929 cells to IC50 for Trypanosoma cruzi. Type of data set: toxicity. To be noted: read-out: Ratio CC50/IC50.
With `O=S(=O)(c1ccc(Cl)cc1)N1CCNCC1`, the selectivity ratio was 61.

The subject of a further data set is Leishmania infantum. As to the kind of experiment: Antileishmanial activity against Leishmania infantum.
Conditions: not given
It counts as functional, organism-based.
Molecule `O=S(=O)(c1ccc(Cl)cc1)N1CCNCC1` yielded an IC50 of 5 µM.

A further data set relates to Leishmania braziliensis. The experiment in a line: Antileishmanial activity against Leishmania braziliensis. It counts as functional, organism-based.
Conditions: not given
Take `O=S(=O)(c1ccc(Cl)cc1)N1CCNCC1`: half-maximal inhibition (IC50) was put at 4.5 µM.

Tested on in the next data set: not listed separately
As to the kind of experiment: Cytotoxicity against human THP-1 cells.
Conditions: not given
Type of data set: toxicity, cell-based.
For `O=S(=O)(c1ccc(Cl)cc1)N1CCNCC1`, it took 1250 µM to reach half-maximal cytotoxicity (CC50).

Tested on in another data set: not listed separately
The experiment in a line: Selectivity index, ratio of CC50 for human THP-1 cells to IC50 for Leishmania infantum. To be noted: read-out: Ratio CC50/IC50. Type of data set: toxicity.
Turning to `O=S(=O)(c1ccc(Cl)cc1)N1CCNCC1`, the selectivity ratio is more than 250.

Tested on in a further data set: not listed separately
As to the kind of experiment: Selectivity index, ratio of CC50 for human THP-1 cells to IC50 for Leishmania braziliensis. Type of data set: toxicity. To be noted: read-out: Ratio CC50/IC50.
Turning to `O=S(=O)(c1ccc(Cl)cc1)N1CCNCC1`, the selectivity ratio was more than 250.

The test system of the next data set is Leishmania braziliensis. As to the kind of experiment: Antileishmanial activity against Leishmania braziliensis MHOM/BR/75/M2904 expressing red fluorescence protein infected in THP-1 cells pre-infected for 4 hrs followed by compound addition and measured after 72 hrs by microplate reader assay. Type of data set: functional, organism-based. To be noted: MHOM/BR/75/M2904, THP-1.
As for `N#CCOc1ccc(N2CCN(S(=O)(=O)c3ccc(Cl)cc3)CC2)cc1`, the midpoint of inhibition, the IC50, lay at 40.3 µM.
The molecule `COc1ccc(S(=O)(=O)N2CCN(c3ccc(OCCN(C)C)cc3)CC2)cc1` registered an IC50 of 70.5 µM.
With `N#CCOc1ccc(C(=O)N2CCN(S(=O)(=O)c3ccc(Cl)cc3)CC2)cc1`, the midpoint of inhibition, the IC50, lay at 0.7 µM.
`CN(C)CCOc1ccc(N2CCN(S(=O)(=O)c3ccc(F)cc3)CC2)cc1` showed an IC50 of 21 µM.

Tested on in another data set: not listed separately
As to the kind of experiment: Selectivity index, ratio of CC50 for human THP-1 cells to IC50 for Leishmania braziliensis MHOM/BR/75/M2904 expressing red fluorescence protein infected in THP-1 cells. Type of data set: toxicity, cell-based. To be noted: read-out: Ratio CC50/IC50.
On to `N#CCOc1ccc(N2CCN(S(=O)(=O)c3ccc(Cl)cc3)CC2)cc1`, for which the selectivity ratio worked out at 1.
On the same count and under the same terms, to `COc1ccc(S(=O)(=O)N2CCN(c3ccc(OCCN(C)C)cc3)CC2)cc1` belongs 6.
In the case of `N#CCOc1ccc(C(=O)N2CCN(S(=O)(=O)c3ccc(Cl)cc3)CC2)cc1`, the selectivity ratio turned out to be 516.
With `CN(C)CCOc1ccc(N2CCN(S(=O)(=O)c3ccc(F)cc3)CC2)cc1`, the selectivity ratio was 48.
